Test results as given in article PMC3158281 (Nature chemical biology, 2011).
Square brackets hold non-standard residues; d marks the D form. Ends that are not written are not given here. * marks the point of attachment. FITC = O=C1OC2(c3ccc(O)cc3Oc3cc(O)ccc32)c2ccc(NC(=S)*)cc21; Pmab = not defined here; PEG = not defined here

Tests used:
HeLa cells = assay: Mitotic arrest and apoptotic cell death in cultured HeLa cells; format: cell-based, human; conditions: 100 nM
peptide 9 = target: T1, peptide 9 (synthetic construct, not fully specified (residue 3); reading uncertain); assay: fluorescence polarization
T1 chain: {FITC-PEG}-PLHS[Pmab]

For `CC[C@@H]1C(=O)N(C)c2cnc(Nc3ccc(C(=O)NC4CCN(C)CC4)cc3OC)nc2N1C1CCCC1` [BI 2536], the “induction of mitotic arrest and apoptotic cell death” value (HeLa cells) was “induced a greatly delayed, but pronounced mitotic arrest and apoptotic cell death”.

B1: Plk3 PBD PBD (protein)
chain: WVSKWVDYSNKFGFGYQLSSRRVAVLFNDGTHMALSANRKTVHYNPTSTKHFSFSVGAVPRALQPQLGILRYFASYMEQHLMKGGDLPSVEEVEVPAPPLLLQWVKTDQALLMLFSDGTVQVNFYGDHTKLILSGWEPLLVTFVARNRSACTYLASHLRQLGCSPDLRQRLRYALRLLRDRSP
B1 was tested, and the Kd (peptide 9) was 0.46 µM.
